Measurements reported in US7838271B2, “Microbiological method for producing amides” (priority 2001, dated 2010).
Where two headings read alike, the source gives them in different places. Marks after values point to notes of the source that are not given here.

Key:
[1] = tested on: Rhodococcus sp. FZ4 nitrile hydratase; format: cell-based
Procedure: (§1) Nitrile hydratase activity was determined by incubating a reaction mixture comprising 3-cyanopyridine (1.0 M; 1.0 ml), potassium phosphate buffer (0.1 M, pH 7.0; 0.5 ml) and cell suspension (0.5 ml) with stirring at 20° C. for 5 min. The reaction was stopped by adding HCI (5 M; 0.1 ml). After filtration (0.2 μm filter) of the reaction mixture, the amount of nicotinamide produced was determined by means of HPLC (Waters Spherisorb 5 μ ODS2 (4.6×150 mm); KH2P04/H3P04 (10 mM; pH 2.8)/acetonitrile=9:1 (v/v); 1 ml/min; 230 nm). The total activity is expressed as μmol of nicotinamide produced/ (min×ml) and the specific activity is expressed as μmol of nicotinamide produced/(min×ml×OD610 nm).
(§2) The preculture medium of Table 2 was inoculated with strain Rhodococcus sp. FZ4 (DSM 13597), followed by incubation with shaking at 28° C. for 1 to 2 days. The preculture was transferred into the culture medium of Table 5, which contained different inducers, and cultured with shaking at 28° C. for 3 days. Nitrile hydratase activity was determined according to Example 1. Rhodococcus sp.

[2] = tested on: Rhodococcus sp. FZ4; format: cell-based
Procedure: as §2

[3] = tested on: Rhodococcus sp. FZ4 nitrile hydratase; assay: Substrate specificity of nitrile hydratase activity, resting cells; format: cell-based
Procedure: as §1
Rhodococcus sp. FZ4 nitrile hydratase activity with respect to different substrates was determined according to Example 1, except that the appropriate substrate was used instead of 3-cyanopyridine and that the HPLC conditions were modified according to the substrate used.

[4] = tested on: Rhodococcus sp. FZ4 nitrile hydratase; format: cell-based; remark: listed apart in the source
Procedure: A reaction mixture comprising acetonitrile (0.2-19.0 M; 1.0-1.6 ml), aqueous NaCl solution (0.85% (w/v); 0.6-0.0 ml), potassium phosphate buffer (0.1 M; pH 7.0; 0.3 ml) and cell suspension (0.1 ml) was incubated with shaking at 20° C. for 10 min. The total reaction volume was 2.0 ml. The reaction was stopped by adding MeOH. The reaction mixture was centrifuged (12 000 rpm, 5 min) and the amount of acetamide produced was determined by means of HPLC according to Example 14.

[5] = tested on: Rhodococcus sp. FZ4 nitrile hydratase; format: cell-based; conditions: pH 7
Procedure: The reaction was stopped by adding MeOH. The reaction mixture was centrifuged (12 000 rpm, 5 min) and the amount of acetamide produced was determined by means of HPLC according to Example 14.

[6] = tested on: purified Rhodococcus sp. FZ4 nitrile hydratase; assay: Substrate specificity of purified nitrile hydratase; format: biochemical
Procedure: A reaction mixture comprising nitrile hydratase solution (0.695 μmol/min; 0.025 ml), different substrates (0.500 ml) and potassium phosphate buffer (0.1 M; pH 7.0; 0.475 ml) was incubated at 20° C. for 5 to 10 min. The concentrations of the substrates used were in the range from 0.015 to 0.250 M. The reaction was stopped by adding MeOH. The amount of amide produced was determined by means of HPLC.

[7] = tested on: purified Rhodococcus sp. FZ4 nitrile hydratase; conditions: read-out: KM value for acetonitrile; pH 7
Procedure: The reaction mixture was incubated at 20° C. for 10 min. The reaction was stopped by adding methanol and the amount of acetamide produced was determined by means of HPLC according to Example 14.

[8] = tested on: Rhodococcus sp. FZ4 nitrile hydratase; format: cell-based; remark: listed apart in the source
Procedure: as §1
(§3) A cell suspension was incubated at different nicotinamide concentrations in the range from 0 to 20% (w/v) at 20° C. for 24 h. The cells were removed, washed and resuspended in potassium phosphate buffer (0.1 M; pH 7.0).
(§4) The influence of nicotinamide concentration on the nitrile hydratase activities of Rhodococcus sp. FZ4, Rhodococcus sp. GF270, Amycolatopsis sp. NA40 and Rhodococcus rhodochrous J1 was determined according to Example 9 using the respective microorganism and the nicotinamide concentration indicated in Table 11.

[9] = tested on: Rhodococcus sp. GF270 nitrile hydratase; format: cell-based
Procedure: as §1, §3, §4

[10] = tested on: Rhodococcus sp. FZ4 nitrile hydratase; assay: Influence of cofactors on nitrile hydratase activity during cultivation; format: cell-based; conditions: basal medium with cofactor 0.004 g/l, 28° C., 2 to 3 days; substrate 3-cyanopyridine
Procedure: as §1
(§5) The preculture medium of Table 2 was inoculated with strain Rhodococcus sp. FZ4 (DSM 13597), followed by incubation with shaking at 28° C. for 1 to 2 days. The preculture was transferred into the basal medium of Table 3, which contains either CoCl 2 or FeSO4, and cultured with shaking at 28° C. for 2 to 3 days. Nitrile hydratase activity was determined according to Example 1.

[11] = tested on: Rhodococcus sp. FZ4; assay: Influence of cofactors on growth during cultivation; format: cell-based; conditions: basal medium with cofactor 0.004 g/l, 28° C., 2 to 3 days
Procedure: as §5, with “1. A nitrile hydratase activity was present only when culturing Rhodococcus sp. FZ4 in the presence of cobalt.” for “1.”

[12] = tested on: purified Rhodococcus sp. FZ4 nitrile hydratase; assay: Influence of metal ions on the activity of purified nitrile hydratase; format: biochemical; conditions: metal ions 1.0 mM; no addition = 100
Procedure: A solution comprising nitrile hydratase solution (0.695 μmol/min; 0.025 ml), potassium phosphate buffer (0.1 M; pH 7.0; 0.475 ml), distilled water (0.150 ml) and different potential inhibitors (0.100 ml) was incubated at 20° C. for 5 min. This was followed by the addition of 3-cyanopyridine (1.0 M; 0.250 ml). The concentration of the inhibitors in the reaction mixture was 1.0 mM. The reaction mixture was incubated at 20° C. for 10 min. The reaction was stopped by adding MeOH. The amount of nicotinamide produced was determined by means of HPLC according to Example 1.
The influence of metal ions on the activity of purified nitrile hydratase was carried out according to Example 24, but with the addition of metal ions instead of potential inhibitors. […]

[13] = water; cited from earlier work
[14] = tested on: Rhodococcus rhodochrous J1 nitrile hydratase; assay: Substrate specificity of nitrile hydratase activity (comparison strain); format: cell-based; conditions: compound as substrate; 3-cyanopyridine = 100
[15] = tested on: Amycolatopsis sp. NA40 nitrile hydratase; assay: KM value for 3-cyanopyridine, resting cells; format: cell-based; conditions: 30° C., pH 7.0
Procedure: The reaction was stopped by adding HC1(2 M; 0.1 ml).
FZ4, Rhodococcus sp. GF270 (DSM 12211; WO 99/05306), Amycolatopsis sp. NA40 (DSM 11617; WO 99/05306) and Rhodococcus rhodochrous J1 were determined according to Example 11 using the respective microorganism.

[16] = tested on: Amycolatopsis sp. NA40 nitrile hydratase; format: cell-based; conditions: incubation for 15 min
Procedure: as §1
(§6) […] The cells were removed, washed and resuspended in potassium phosphate buffer (0.1 M; pH 7.0).
as §4, with “of 3-cyanopyridine” for “of nicotinamide”, “the 3-cyanopyridine concentrations” for “the nicotinamide concentration”, “Table 10.” for “Table 11.”

[17] = tested on: Rhodococcus sp. FZ4 nitrile hydratase; format: cell-based; conditions: for Relative activity: incubation for 60 min
Procedure: as §1, §6
as §4, with “of 3-cyanopyridine” for “of nicotinamide”, “the 3-cyanopyridine concentrations” for “the nicotinamide concentration”, “Table 10.” for “Table 11.”

[18] = tested on: Rhodococcus sp. GF270 nitrile hydratase; format: cell-based; conditions: incubation for 60 min
Procedure: as §1
A cell suspension was incubated at different 3-cyano-30 pyridine concentrations in the range from 0 to 10% (w/v) at 20° C. for 60 min. The cells were removed, washed and resuspended in potassium phosphate buffer (0.1 M; pH 7.0).
as §4, with “of 3-cyanopyridine” for “of nicotinamide”, “the 3-cyanopyridine concentrations” for “the nicotinamide concentration”, “Table 10.” for “Table 11.”

[19] = tested on: Rhodococcus rhodochrous J1 nitrile hydratase; format: cell-based; conditions: incubation for 15 min
Procedure: as §1, with “Nitrile hydratase activity was determined by incubating a reaction mixture comprising 3-cyanopyridine (1.0 M; 1.0 ml), potassium phosphate buffer (0.1 M, pH 7.0; 0.5 ml) and cell suspension (0.5 ml) with stirring at 20° C. for 5 min.” left out
as §6
as §4, with “of 3-cyanopyridine” for “of nicotinamide”, “the 3-cyanopyridine concentrations” for “the nicotinamide concentration”, “Table 10.” for “Table 11.”

[20] = tested on: purified Rhodococcus sp. FZ4 nitrile hydratase; assay: KM value for 3-cyanopyridine, purified nitrile hydratase; format: biochemical; conditions: purified enzyme, potassium phosphate buffer pH 7.0, 20° C.
Procedure: The reaction mixture was incubated at 20° C. for 10 min. The reaction was stopped by adding methanol and the amount of nicotinamide produced was determined by means of HPLC according to Example 1.

[21] = culture medium with inducer 0.2% (w/v), 28° C., 3 days, substrate 3-cyanopyridine
[22] = culture medium with inducer 0.2% (w/v), 28° C., 3 days

Question: Which Specific activity [1] does the source give for `CC#N` [Acetonitrile] here?
Answer: 4.13 μmol/(min × ml × OD610 nm)

Question: And the Total activity [1]?
Answer: 18.4 µmol/min/mL

Question: What about the Growth [2] of the same compound?
Answer: 4.46 OD610 nm

Question: And the Relative activity [3]?
Answer: 646%

Question: And the “nitrile hydratase activity as a function of acetonitrile concentration” value [4]?
Answer: nearly constant

Question: What about the “nitrile hydratase activity after incubation with acetonitrile” value [5] of the same compound?
Answer: nearly constant

Question: And the Relative activity [6]?
Answer: 1 008%

Question: And the Km [7]?
Answer: 2.84 mM

Question: For `NC(=O)c1cccnc1` [Nicotinamide], which Specific activity [1] is on record?
Answer: 1.39 μmol/(min × ml × OD610 nm)

Question: What about the Total activity [1] of the same compound?
Answer: 4.94 µmol/min/mL

Question: And the Growth [2]?
Answer: 3.55 OD610 nm

Question: And the Relative activity [8]?
Answer: 100%

Question: And the “nitrile hydratase activity after incubation with nicotinamide” value [8]?
Answer: corresponded approximately to the original nitrile hydratase activity

Question: And the Relative activity [9]?
Answer: 100%

Question: Which Specific activity [10] does the source give for `[Cl-].[Cl-].[Co+2]` [CoC12] here?
Answer: 13.1 μmol/(min × ml × OD610 nm)

Question: What about the Total activity [10] of the same compound?
Answer: 38.1 µmol/min/mL

Question: And the Growth [11]?
Answer: 2.79 OD610 nm

Question: What about the Relative activity [12] of the same compound?
Answer: 110%

Question: Which Specific activity [10] does the source give for `O=S(=O)([O-])[O-].[Fe+2]` [FeSO4] here?
Answer: 0.346 μmol/(min × ml × OD610 nm)

Question: What about the Total activity [10] of the same compound?
Answer: 0.989 µmol/min/mL

Question: And the Growth [11]?
Answer: 2.86 OD610 nm

Question: And the Relative activity [12]?
Answer: 113%

Question: What does the source list for `CC(N)=O` [Acetamide]?
Answer: Specific activity [1, 21]: 4.98 μmol/(min × ml × OD610 nm); Total activity [1, 21]: 21.6 µmol/min/mL; Growth [2, 22]: 4.37 OD610 nm; concentration of an acetamide solution saturated at 30° C. [13]: 220-230 g of acetamide in 100 ml of water

Question: Which Specific activity [1, 21] does the source give for `N#Cc1cccnc1` [3-Cyanopyridine] here?
Answer: 2.21 μmol/(min × ml × OD610 nm)

Question: What about the Total activity [1, 21] of the same compound?
Answer: 12.3 µmol/min/mL

Question: What about the Growth [2, 22] of the same compound?
Answer: 5.54 OD610 nm

Question: And the Relative activity ([3]; compound as substrate, 3-cyanopyridine = 100, resting cells, 20° C.)?
Answer: 100%

Question: And the Relative activity [14]?
Answer: 100%

Question: And the Km [15]?
Answer: 41.7 mM

Question: And the Relative activity ([16]; 3-cyanopyridine 2.5% (w/v))?
Answer: 74^b %

Question: And the Relative activity ([16]; 3-cyanopyridine 5.0% (w/v))?
Answer: 56^b %

Question: And the Relative activity ([16]; 3-cyanopyridine 7.5% (w/v))?
Answer: 47^b %

Question: And the Relative activity ([16]; 3-cyanopyridine 10.0% (w/v))?
Answer: 16^b %

Question: What about the “nitrile hydratase activity after incubation with 3-cyanopyridine” value ([17]; 0 to 20% (w/v) for 60 minutes, 20° C.) of the same compound?
Answer: corresponded approximately to the original nitrile hydratase activity

Question: What about the Relative activity ([17]; 3-cyanopyridine 2.5% (w/v)) of the same compound?
Answer: 100^a %

Question: What about the Relative activity ([17]; 3-cyanopyridine 5.0% (w/v)) of the same compound?
Answer: 100^a %

Question: What about the Relative activity ([17]; 3-cyanopyridine 7.5% (w/v)) of the same compound?
Answer: 100^a %

Question: And the Relative activity ([17]; 3-cyanopyridine 10.0% (w/v))?
Answer: 100^a %

Question: What about the Relative activity ([18]; 3-cyanopyridine 2.5% (w/v)) of the same compound?
Answer: 100^a %

Question: What about the Relative activity ([18]; 3-cyanopyridine 5.0% (w/v)) of the same compound?
Answer: 100^a %

Question: And the Relative activity ([18]; 3-cyanopyridine 7.5% (w/v))?
Answer: 100^a %

Question: And the Relative activity ([18]; 3-cyanopyridine 10.0% (w/v))?
Answer: 100^a %

Question: And the Relative activity ([19]; 3-cyanopyridine 5.0% (w/v))?
Answer: 86^b %

Question: What about the Relative activity ([19]; 3-cyanopyridine 10.0% (w/v)) of the same compound?
Answer: 63^b %

Question: And the Total activity ([6]; substrate concentration 0.25 M, corresponds to 100%)?
Answer: ^aTotal activity: 4,164 μmol/(min × .ml).

Question: And the Relative activity ([6]; substrate concentration 0.25 M, reference = 100)?
Answer: 100^a %

Question: And the Km [20]?
Answer: 80.5 mM
